Results as given in ChEMBL document CHEMBL4706585, “Novel 2-indolinone thiazole hybrids as sunitinib analogues: Design, synthesis, and potent VEGFR-2 inhibition with potential anti-renal cancer activity” (Eur J Med Chem, 2020).

How the values were obtained:
A498 = assay: Cytotoxicity against human A498 cells assessed as reduction in cell viability after 48 hrs by MTT assay; settings: A498, 48 h
CAKI-1 = assay: Cytotoxicity against human CAKI-1 cells assessed as reduction in cell viability after 48 hrs by MTT assay; settings: CAKI-1, 48 h
[1] = Cytotoxicity against human RPTEC/TERT1 cells assessed as reduction in cell viability after 48 hrs by MTT assay

SMILES | IC50 (A498) | IC50 (CAKI-1) | IC50 [1]
O=C1CS/C(=N\N=C2/C(=O)N(Cc3ccccc3)c3ccc(Cl)cc32)N1 | 3.45 µM | 35.6 µM | 
O=C1/C(=N\N=c2\[nH]c(-c3ccc([N+](=O)[O-])cc3)cs2)c2cc(Cl)ccc2N1Cc1ccccc1 | 24.7 µM | 5.78 µM | 
CCOC(=O)/C(=N/Nc1ccc(C)cc1)S/C(N)=N\N=C1/C(=O)N(Cc2ccccc2)c2ccc(Cl)cc21 | 2.88 µM | 3.9 µM | 
CC(=O)c1s/c(=N\N=C2/C(=O)N(Cc3ccccc3)c3ccc(Cl)cc32)[nH]c1C | 6.27 µM | 12.8 µM | 
CCN(CC)CCNC(=O)c1c(C)[nH]c(/C=C2\C(=O)Nc3ccc(F)cc32)c1C [SUNITINIB] | 1.25 µM | 4.93 µM | 16.9 µM
NC1=NNC(=O)/C1=C1/C(=O)N(Cc2ccccc2)c2ccc(Cl)cc21 | 8.53 µM | 0.82 µM | 
CCOC(=O)c1s/c(=N\N=C2/C(=O)N(Cc3ccccc3)c3ccc(Cl)cc32)[nH]c1C | 1.23 µM | 3.31 µM | 49.8 µM
